Experimental data published in patent US6500864B1, “Disulfide derivatives useful for treating allergic diseases” (Alcon Universal Ltd., priority 2000, dated 2002).

System: human conjunctival tissue mast cells
Experiment: Inhibition of anti-human IgE induced histamine release from human conjunctival tissue mast cells (HCTMC), histamine by RIA
Type: cell-based
Details: Mast cell, bracketed value, equals the mean of the four single determinations in the same cell, read-out: IC50 (nM), value in square brackets
Method: Methods detailing preparation of monodispersed HCTMC and mediator release studies with these cells have been described (U.S. Pat. No. 5,360,720 and Miller et al, Ocular Immunology and Inflammation, 4(1):39-49 (1996)). Briefly, human conjunctival tissue mast cells were isolated from post-mortem tissue donors obtained within 8 hours of death by various eye banks and transported in Dexsol® corneal preservation medium, or equivalent. Tissues were enzymatically digested by repeated exposure (30 min. at 37° C.) to collagenase and hyaluronidase (2× with 200 U each/gram tissue, then 2-4× with 2000 U each/gram tissue) in Tyrode's buffer containing 0.1% gelatin. (Tyrode's buffer (in mM): 137 NaCl, 2.7 KCl, 0.35 NaH2PO4, 1.8 CaCl2, 0.98 MgCl2, 11.9 NaHCO3, and 5.5 glucose). […]
Cells were harvested from the culture plate and counted for viability (trypan blue exclusion) and mast cell number (toluidine blue O). […] Supernatants were stored at −20° C. until analyzed for histamine content by RIA (Beckman Coulter, Chicago, Ill.). […]
Inhibition of histamine release was determined by direct comparison of with anti-IgE challenged mast cells using Dunnett's t-test (Dunnett, “A multiple comparison procedure for comparing treatments with a control”, J. Amer. Stat. Assoc. (1955), 50:1096-1121).

IC50: 194 nM
Structure (SMILES): C=CCNC(=O)Nc1ccccc1SSc1ccccc1NC(=O)NCC=C [Compound 1]
